From patent publication US10738028B2, “Spiro three-membered ring, spiro five-membered ring peptide deformylase inhibitor and use thereof in antibacteria and anti-tumor” (priority 2016, dated 2020)
Converted amounts (≈) assume the structure as drawn. Like-named read-outs stand apart in the source and are kept apart here.

Key:
Type in all cases: cell-based
[1] = tested on: MGC-803 gastric cancer cell line; assay: CCK-8 proliferation inhibition; details: Homo sapiens, MGC-803, 72 h, concentration of 30 μM
Summary of the method: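 Using media specific to each line (1640 for MGC-803 and Jurkat, F12 for PC3, DMEM high glucose for MCF-7, each with 10% newborn bovine serum), cells at 2000/well were treated for 72 h with serially formulated compounds, then assessed with CCK-8 diluted 1:10.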

[2] = tested on: A549 lung cancer cell line; assay: CCK-8 proliferation inhibition; details: Homo sapiens, A549, 72 h, concentration of 30 μM
Summary of the method: (§1)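 Plating at 2000 cells/well, then incubation overnight at 37° C. Next, a range of compound concentrations for 72 hours (control 1‰ DMSO). Finally, medium decanted and CCK-8 diluted 1:10 added.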

[3] = tested on: BEL-7402 liver cancer cell line; assay: CCK-8 proliferation inhibition; details: concentration of 30 μM
Summary of the method: as §1

[4] = MIC in vitro anti-bacterial experiments, Gram-positive bacteria; details: lowest MIC reached; read-out: minimum inhibitory concentration against Gram-positive bacteria
Description: 1. The invention adopts the two-fold agar dilution method recommended by the operating procedure of antimicrobial susceptibility testing set by American Clinical and Laboratory Standards Institute (CLSI) to determine the Minimum Inhibitory Concentration (MIC) of the test samples against the tested strains.

[5] = tested on: methicillin-resistant Staphylococcus epidermidis (MRSE); assay: MIC, two-fold agar dilution (CLSI), clinical isolates
Summary of the method: (§2)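 CLSI two-fold agar dilution; MIC of test samples read per tested strain.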

[6] = tested on: Streptococcus pneoumoniae (SPN); assay: as above
Summary of the method: as §2

[7] = tested on: methicillin-sensitive Staphylococcus epidermidis (MSSE); assay: as above
Summary of the method: as §2

[8] = tested on: Enterococcus faecium (EFM); assay: as above
Summary of the method: as §2

[9] = tested on: methicillin-resistant Staphylococcus aureus (MRSA); assay: as above
Summary of the method: as §2

[10] = tested on: Enterococcus faecalis (EFA); assay: as above
Summary of the method: as §2

[11] = tested on: Escherichia coli (including ESBLs, non-ESBLs); assay: as above
Summary of the method: as §2

[12] = tested on: Moraxella catarrhalis (BCA); assay: as above; details: for MIC: Moraxella catarrhalis
Summary of the method: as §2

[13] = tested on: methicillin-sensitive Staphylococcus aureus (MSSA); assay: as above
Summary of the method: as §2

[14] = tested on: HCT-116 colorectal cancer cell line; assay: CCK-8 proliferation inhibition; details: Homo sapiens, HCT-116, 72 h, concentration of 30 μM, 72 hours, CCK-8
Summary of the method: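 Proliferation over 72 hours of compound treatment was measured with CCK-8 against a 1‰ DMSO control.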

With `Cc1csc(NC(=O)[C@@H]2CC3(CC3)CN2C(=O)[C@H](CC2CCCC2)CN(O)C=O)n1` [Example 33] the inhibition at 30 µM [1] was 27%, the inhibition at 30 µM [2] was 20% and the inhibition at 30 µM ([3]; Homo sapiens, Bel-7402, 72 h) was > 50%. The “Inhibition of proliferation, Liver cancer BEL-7402” value ([3]; 72 hours, 30 µM) was 57%, the MIC [4] was < 0.008 µg/mL and the MIC (anti-bacterial activity) ([5]; strain MRSE 15-1) was 0.015 µg/mL (≈ 0.0345 µM). For the same molecule, the MIC (anti-bacterial activity) ([5]; strain MRSE 15-2) was 0.125 µg/mL (≈ 0.288 µM), the MIC (anti-bacterial activity) ([5]; strain MRSE 15-3) was 0.125 µg/mL (≈ 0.288 µM) and the MIC (anti-bacterial activity) ([5]; strain MRSE 15-7) was 0.125 µg/mL (≈ 0.288 µM). It also gave an MIC (anti-bacterial activity) ([6]; strain SPN 16-2) of 0.06 µg/mL (≈ 0.138 µM), an MIC (anti-bacterial activity) ([6]; strain SPN 16-4) of 1 µg/mL (≈ 2.3 µM) and an MIC (anti-bacterial activity) ([7]; strain MSSE 15-3) of 0.125 µg/mL (≈ 0.288 µM). For the same molecule, the MIC (anti-bacterial activity) ([7]; strain MSSE 15-4) was 0.125 µg/mL (≈ 0.288 µM), the MIC (anti-bacterial activity) ([7]; strain MSSE 15-5) was 0.125 µg/mL (≈ 0.288 µM) and the MIC (anti-bacterial activity) ([7]; strain MSSE 15-6) was 0.03 µg/mL (≈ 0.069 µM). The MIC (anti-bacterial activity) ([8]; strain EFM 15-1) was 0.5 µg/mL (≈ 1.15 µM), the MIC (anti-bacterial activity) ([8]; strain EFM 15-2) was 0.5 µg/mL (≈ 1.15 µM) and the MIC (anti-bacterial activity) ([8]; strain EFM 15-3) was 0.125 µg/mL (≈ 0.288 µM). It also gave an MIC (anti-bacterial activity) ([8]; strain EFM 15-4) of 0.5 µg/mL (≈ 1.15 µM), an MIC (anti-bacterial activity) ([8]; strain EFM 15-5) of 0.5 µg/mL (≈ 1.15 µM) and an MIC (anti-bacterial activity) ([8]; strain EFM 15-6) of 0.5 µg/mL (≈ 1.15 µM). For the same molecule, the MIC (anti-bacterial activity) ([9]; strain MRSA 15-1) was 0.03 µg/mL (≈ 0.069 µM), the MIC (anti-bacterial activity) ([9]; strain MRSA 15-2) was 0.06 µg/mL (≈ 0.138 µM) and the MIC (anti-bacterial activity) ([9]; strain MRSA 15-3) was < 0.008 µg/mL. The MIC (anti-bacterial activity) ([9]; strain MRSA 15-4) was 0.06 µg/mL (≈ 0.138 µM), the MIC (anti-bacterial activity) ([10]; strain EFA 15-1) was 1 µg/mL (≈ 2.3 µM) and the MIC (anti-bacterial activity) ([10]; strain EFA 15-2) was 1 µg/mL (≈ 2.3 µM). For the same molecule, the MIC (anti-bacterial activity) ([10]; strain EFA 15-3) was 1 µg/mL (≈ 2.3 µM), the MIC (anti-bacterial activity) ([10]; strain EFA 15-4) was 1 µg/mL (≈ 2.3 µM) and the MIC (anti-bacterial activity) ([10]; strain EFA 15-5) was 1 µg/mL (≈ 2.3 µM). For the same molecule, the MIC (anti-bacterial activity) ([10]; strain EFA 15-6) was 1 µg/mL (≈ 2.3 µM), the MIC (anti-bacterial activity) ([10]; strain EFA 15-9) was 1 µg/mL (≈ 2.3 µM) and the MIC (anti-bacterial activity) ([11]; strain ECO+ 15-1) was > 32 µg/mL. The MIC (anti-bacterial activity) ([11]; strain ECO+ 15-2) was > 32 µg/mL, the MIC (anti-bacterial activity) ([11]; strain ECO+ 15-3) was > 32 µg/mL and the MIC (anti-bacterial activity) ([11]; strain ECO+ 15-4) was > 32 µg/mL. The MIC (anti-bacterial activity) ([11]; strain ECO− 15-1) was > 32 µg/mL, the MIC (anti-bacterial activity) ([11]; strain ECO− 15-2) was > 32 µg/mL and the MIC (anti-bacterial activity) ([11]; strain ECO− 15-3) was > 32 µg/mL. For the same molecule, the MIC (anti-bacterial activity) ([11]; strain ECO− 15-4) was > 32 µg/mL, the MIC ([12]; 7 clinical isolates, range over strains, read-out: Moraxella catarrhalis (n = 7) MIC) was 0.06 to 0.25 µg/mL (≈ 0.138 to 0.575 µM) and the MIC ([12]; lowest MIC reached, read-out: minimum inhibitory concentration against Moraxella catarrhalis, as low as) was ≥ 0.06 µg/mL. The Anti-bacterial activity (MIC), strain BCA 14-10 ([12]; clinical isolate BCA 14-10) was 0.06 µg/mL, the MIC (anti-bacterial activity) ([12]; strain BCA 14-1) was 0.25 µg/mL (≈ 0.575 µM) and the MIC (anti-bacterial activity) ([12]; strain BCA 14-4) was 0.25 µg/mL (≈ 0.575 µM). The MIC (anti-bacterial activity) ([12]; strain BCA 14-5) was 0.06 µg/mL (≈ 0.138 µM), the MIC (anti-bacterial activity) ([12]; strain BCA 14-6) was 0.06 µg/mL (≈ 0.138 µM) and the MIC (anti-bacterial activity) ([12]; strain BCA 14-7) was 0.03 µg/mL (≈ 0.069 µM). For the same molecule, the MIC (anti-bacterial activity) ([12]; strain BCA 14-8) was 0.125 µg/mL (≈ 0.288 µM), the MIC (anti-bacterial activity) ([13]; strain MSSA 15-3) was 0.06 µg/mL (≈ 0.138 µM) and the MIC (anti-bacterial activity) ([13]; strain MSSA 15-4) was 0.03 µg/mL (≈ 0.069 µM). For the same molecule, the MIC (anti-bacterial activity) ([13]; strain MSSA 15-5) was 0.03 µg/mL (≈ 0.069 µM), the MIC (anti-bacterial activity) ([13]; strain MSSA 15-6) was 0.06 µg/mL (≈ 0.138 µM) and the inhibition at 30 µM ([14]; Table 5, read-out: Inhibition of proliferation, Colorectal cancer HCT116) was ≥ 30%. It also gave an inhibition at 30 µM ([14]; read-out: HCT116 inhibition rate/%) of 31%.
